{"source": "patent US20210030005A1", "about": "“BENZOXABOROLE COMPOSITIONS HAVING A GROWTH ENHANCING EFFECT” (BORAGEN, INC., priority 2018, published 2021)", "key": {"[1]": {"system": "Southern Rust of Maize (Puccinia polysora)", "test": "Field trial, Southern Rust of Maize severity on maize", "format": "in vivo", "experimental": "(§1) In this example, diseased maize having Southern Rust of Maize (Puccinia polysora) was treated with BAG8, Azoxystrobin, and Boscalid. Testing was performed to assess the fungicidal effect of the compounds on Southern Rust of Maize (Puccinia polysora) and to assess the growth enhancing effect of the compounds on the diseased maize.\n(§2) Maize was planted into 6×30 ft plots and replicated four times in a randomized complete block design. Three treatments and an untreated control were tested for efficacy against Southern Rust of Maize (Puccinia polysora) and assessed for yield at the conclusion of the growing season. Foliar applications of the three treatments, BAG8 at 0.25 pounds of active ingredient per acre, azoxystrobin at 0.25 pounds of active ingredient per acre, and boscalid at 0.24 pounds of active ingredient per acre, were applied to the plots at growth stage V8. Best practices were used consistently across the test plots with regard to field conditions such as fertilization, insect control, weed control, and irrigation. Disease assessments were taken in each plot 28 days after the foliar fungicide application. At maturity, each plot was harvested using standard harvesting equipment. After shelling, the kernels were weighed at 11% moisture and yield calculations extrapolated to bushels per acre.\n(§3) Analysis of variance (ANOVA) was used to examine disease severity data and means were separated using Fisher's least significant difference (LSD) method at α=0.05. […]"}, "[2]": {"system": "diseased maize", "test": "Field trial, yield of diseased maize", "format": "in vivo", "conditions": "for Yield: 11% moisture", "experimental": "as §1, §2, §3"}, "[3]": {"system": "diseased soybeans", "test": "Field trial, yield of diseased soybeans", "format": "in vivo, soybean", "experimental": "(§4) In this example, diseased soybeans having Asian Soybean Rust (Phakopsora pachyrhizi) were treated with BAG8 and Azoxystrobin. Testing was performed to assess the fungicidal effect of the compounds on Asian Soybean Rust and to assess the growth enhancing effects of the compounds on the diseased soybeans.\n(§5) Soybeans were planted into 6×30 ft plots and replicated four times in a randomized complete block design. Two treatments and an untreated control were tested for efficacy against Asian Soybean Rust (Phakopsora pachyrhizi) and assessed for yield at the conclusion of the growing season. Foliar applications of the two treatments, BAG8 at 0.25 pounds of active ingredient per acre and azoxystrobin at 0.25 pounds of active ingredient per acre, were applied to the plots at two separate times: growth stage R1 (flowering) and growth stage R3 (bean pod formation). Best practices were used consistently across the test plots with regard to field conditions such as fertilization, insect control, weed control, and irrigation. Disease assessments were taken in each plot 28 days after the final foliar fungicide application. At maturity, each plot was harvested using standard harvesting equipment. After shelling, the beans were weighed at 13% moisture and yield calculations extrapolated to bushels per acre.\nas §3"}, "[4]": {"system": "Asian Soybean Rust (Phakopsora pachyrhizi)", "test": "Field trial, Asian Soybean Rust severity on soybean", "format": "in vivo", "experimental": "as §4, §5, §3"}, "[5]": {"system": "Tomato", "conditions": "Davis et al. 2003, cited from earlier work"}}, "data": [{"smiles": "CO/C=C(/C(=O)OC)c1ccccc1Oc1cc(Oc2ccccc2C#N)ncn1", "note": "[Azoxystrobin, reference compound]", "values": [{"measurement": "reduced disease relative to the untreated control", "setting": "[1]; 0.25 lb ai/A foliar", "value": 100, "unit": "%"}, {"measurement": "Disease Severity (% Leaf Coverage)", "setting": "[1]; 0.25 lb ai/A foliar at V8, 28 days after application", "value": 0.0, "unit": "c % Leaf Coverage"}, {"measurement": "increased yield relative to untreated control", "setting": "[2]; 0.25 lb ai/A foliar", "value": 205, "unit": "%"}, {"measurement": "Yield", "setting": "[2]; 0.25 lb ai/A foliar at V8, harvest at maturity", "value": 151.1, "unit": "a bu/A"}, {"measurement": "increased soybean yield", "setting": "[3]; 0.25 lb ai/A foliar", "value": 305, "unit": "%"}, {"measurement": "Yield", "setting": "[3]; 0.25 lb ai/A foliar at R1 and R3, harvest at maturity, 13% moisture", "value": 59.2, "unit": "a bu/A"}, {"measurement": "reduced disease in comparison to untreated control", "setting": "[4]; 0.25 lb ai/A foliar", "value": 66, "unit": "%"}, {"measurement": "Disease Severity (% Leaf Coverage)", "setting": "[4]; 0.25 lb ai/A foliar at R1 and R3, 28 days after final application", "value": 30.6, "unit": "d % Leaf Coverage"}]}, {"smiles": "O=C(Nc1ccccc1-c1ccc(Cl)cc1)c1cccnc1Cl", "note": "[Boscalid]", "values": [{"measurement": "Disease Severity (% Leaf Coverage)", "setting": "[1]; 0.24 lb ai/A foliar at V8, 28 days after application", "value": 25.1, "unit": "b % Leaf Coverage"}, {"measurement": "Yield", "setting": "[2]; 0.24 lb ai/A foliar at V8, harvest at maturity", "value": 91.6, "unit": "c bu/A"}]}, {"smiles": "OB(O)O", "note": "[boric acid]", "values": [{"measurement": "yield and shelf-life of harvested tomatoes", "setting": "[5]", "value": "higher yield and longer shelf-life for harvested tomatoes"}, {"measurement": "growth of the plant", "setting": "[5]; hydroponic fertilizer", "value": "increased growth of the plant, plant parts, and plant propagation materials"}]}]}
